Assay results taken from patent US8293736B2, “Purine compounds selective for PI3K P110 delta, and methods of use” (F. Hoffmann la Roche AG, priority 2010, dated 2012).

What was measured:
p110 delta = molecular target: T1, p110 delta (Homo sapiens, UniProt O00329); assay: PI3K isoform inhibition assay (fluorescence polarization), p110 delta; assay type: biochemical; details: Ki apparent, Morrison equation; 25 μM ATP, 10 μM PIP2
T1 construct: purchased Upstate Group, Millipore; Dundee, UK
Protocol: (§1) Determination of the activity of PI3 kinase activity of Formula I compounds is possible by a number of direct and indirect detection methods.
(§2) PI3K enzymatic activity was assayed by measuring the amount of product phosphatidylinositol 3,4,5-phosphate (PIP3) formed from substrate 4,5 phosphatidylinositol 4,5-phosphate (PIP2) using a fluorescence polarization displacement assay. The decrease in fluorescence polarization of a fluorescent PIP3 probe is measured as it is displaced from a PIP3-binding protein GRP-1 detector by PI3K-catalyzed product. […] The kinase reactions were initiated by the addition of 40 ng/mL p110α/p85α, 300 ng/mL p110β/p85α, 40 ng/mL p110γ, or 40 ng/mL p110δ/p85α (Upstate Group, Millipore; Dundee, UK), and 10 μM PIP2 (Echelon Biosciences) to the wells. […] After 60 minutes of incubation at room temperature to allow equilibration of labeled and unlabeled PIP3 binding, the parallel and perpendicular components of the fluorescence emissions from each sample were measured at an excitation wavelength of 530 nm and an emission wavelength of 590 nm using an Envision fluorescent plate reader with a rhodamine filter (PerkinElmer Life and Analytical Sciences; Wellesley, Mass.). The assay is capable of detecting 0.1-2.0 μM PIP3 product. The Ki apparent values were obtained by fitting the dose-dependent inhibition data to the Morrison equation for tight-binding, competitive inhibitors. Reference: R. A. Copeland, Enzymes. “A Practical Introduction to Structure, Mechanism and Data Analysis”.
The Formula I compound was serially diluted in 100% DMSO. The kinase reaction was incubated for 1 h at room temperature, and the reaction was terminated by the addition of PBS. IC50 values were subsequently determined using sigmoidal dose-response curve fit (variable slope). […]

p110 alpha = molecular target: T2, p110 alpha (Homo sapiens, UniProt P42336); assay: PI3K isoform inhibition assay (fluorescence polarization), p110 alpha; assay type: biochemical; details: delta/alpha selectivity ratio
T2 construct: purchased Upstate Group, Millipore; Dundee, UK
Protocol: as §1, §2
The same protocol may be used to establish Ki values for p110α (alpha) PI3K binding.
The four Class I PI 3-kinases are cloned into baculovirus vectors as follows: […]

T2 sequence (P42336 whole entry, species assumed, canonical isoform): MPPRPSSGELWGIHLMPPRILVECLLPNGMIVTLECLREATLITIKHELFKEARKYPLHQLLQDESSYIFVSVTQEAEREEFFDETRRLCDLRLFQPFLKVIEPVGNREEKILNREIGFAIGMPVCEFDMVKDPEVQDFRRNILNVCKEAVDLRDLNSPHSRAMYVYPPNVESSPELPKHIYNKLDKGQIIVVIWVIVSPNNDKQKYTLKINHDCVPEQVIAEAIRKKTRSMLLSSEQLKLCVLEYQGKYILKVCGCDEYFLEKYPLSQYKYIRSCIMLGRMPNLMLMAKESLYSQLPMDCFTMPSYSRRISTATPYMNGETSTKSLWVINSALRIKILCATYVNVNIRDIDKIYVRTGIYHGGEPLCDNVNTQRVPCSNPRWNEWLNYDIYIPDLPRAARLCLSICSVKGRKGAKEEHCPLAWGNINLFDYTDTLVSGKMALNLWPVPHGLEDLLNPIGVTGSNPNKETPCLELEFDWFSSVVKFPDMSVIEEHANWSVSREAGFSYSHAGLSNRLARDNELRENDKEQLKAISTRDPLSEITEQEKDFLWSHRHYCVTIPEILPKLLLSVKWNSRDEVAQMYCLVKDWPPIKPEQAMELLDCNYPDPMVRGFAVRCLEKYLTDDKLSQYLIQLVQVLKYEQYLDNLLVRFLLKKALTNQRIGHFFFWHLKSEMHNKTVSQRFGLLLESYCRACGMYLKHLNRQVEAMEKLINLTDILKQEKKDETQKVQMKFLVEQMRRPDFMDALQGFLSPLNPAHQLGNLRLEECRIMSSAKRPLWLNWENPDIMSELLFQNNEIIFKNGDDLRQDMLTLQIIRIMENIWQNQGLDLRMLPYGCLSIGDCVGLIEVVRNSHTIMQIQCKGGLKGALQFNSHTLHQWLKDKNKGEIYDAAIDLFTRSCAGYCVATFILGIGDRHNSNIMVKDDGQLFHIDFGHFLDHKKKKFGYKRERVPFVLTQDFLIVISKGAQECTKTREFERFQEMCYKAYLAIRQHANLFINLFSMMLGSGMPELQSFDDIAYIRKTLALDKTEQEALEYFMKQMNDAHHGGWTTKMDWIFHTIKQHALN
T2 sequence (P27986 whole entry partner, species assumed, canonical isoform): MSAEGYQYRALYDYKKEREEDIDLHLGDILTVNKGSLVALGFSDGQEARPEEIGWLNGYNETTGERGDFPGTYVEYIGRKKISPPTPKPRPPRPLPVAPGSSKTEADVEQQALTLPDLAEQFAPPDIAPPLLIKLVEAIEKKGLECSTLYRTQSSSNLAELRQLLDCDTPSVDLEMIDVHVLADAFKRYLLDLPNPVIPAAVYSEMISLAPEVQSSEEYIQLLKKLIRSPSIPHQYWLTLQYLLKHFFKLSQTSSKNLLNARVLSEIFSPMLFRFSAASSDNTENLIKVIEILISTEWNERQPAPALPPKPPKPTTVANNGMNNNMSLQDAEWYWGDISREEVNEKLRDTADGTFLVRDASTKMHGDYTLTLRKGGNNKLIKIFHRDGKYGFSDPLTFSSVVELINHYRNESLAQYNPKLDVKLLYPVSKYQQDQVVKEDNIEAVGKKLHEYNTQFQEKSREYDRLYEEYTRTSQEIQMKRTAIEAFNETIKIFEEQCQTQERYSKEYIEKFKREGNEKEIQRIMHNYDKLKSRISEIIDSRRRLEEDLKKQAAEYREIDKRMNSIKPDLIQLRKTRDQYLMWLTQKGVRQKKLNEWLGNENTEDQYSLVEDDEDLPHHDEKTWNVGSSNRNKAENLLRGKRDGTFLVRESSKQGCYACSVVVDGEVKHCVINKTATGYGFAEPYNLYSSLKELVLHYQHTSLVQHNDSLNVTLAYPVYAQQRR
T1 sequence (O00329 whole entry, canonical isoform): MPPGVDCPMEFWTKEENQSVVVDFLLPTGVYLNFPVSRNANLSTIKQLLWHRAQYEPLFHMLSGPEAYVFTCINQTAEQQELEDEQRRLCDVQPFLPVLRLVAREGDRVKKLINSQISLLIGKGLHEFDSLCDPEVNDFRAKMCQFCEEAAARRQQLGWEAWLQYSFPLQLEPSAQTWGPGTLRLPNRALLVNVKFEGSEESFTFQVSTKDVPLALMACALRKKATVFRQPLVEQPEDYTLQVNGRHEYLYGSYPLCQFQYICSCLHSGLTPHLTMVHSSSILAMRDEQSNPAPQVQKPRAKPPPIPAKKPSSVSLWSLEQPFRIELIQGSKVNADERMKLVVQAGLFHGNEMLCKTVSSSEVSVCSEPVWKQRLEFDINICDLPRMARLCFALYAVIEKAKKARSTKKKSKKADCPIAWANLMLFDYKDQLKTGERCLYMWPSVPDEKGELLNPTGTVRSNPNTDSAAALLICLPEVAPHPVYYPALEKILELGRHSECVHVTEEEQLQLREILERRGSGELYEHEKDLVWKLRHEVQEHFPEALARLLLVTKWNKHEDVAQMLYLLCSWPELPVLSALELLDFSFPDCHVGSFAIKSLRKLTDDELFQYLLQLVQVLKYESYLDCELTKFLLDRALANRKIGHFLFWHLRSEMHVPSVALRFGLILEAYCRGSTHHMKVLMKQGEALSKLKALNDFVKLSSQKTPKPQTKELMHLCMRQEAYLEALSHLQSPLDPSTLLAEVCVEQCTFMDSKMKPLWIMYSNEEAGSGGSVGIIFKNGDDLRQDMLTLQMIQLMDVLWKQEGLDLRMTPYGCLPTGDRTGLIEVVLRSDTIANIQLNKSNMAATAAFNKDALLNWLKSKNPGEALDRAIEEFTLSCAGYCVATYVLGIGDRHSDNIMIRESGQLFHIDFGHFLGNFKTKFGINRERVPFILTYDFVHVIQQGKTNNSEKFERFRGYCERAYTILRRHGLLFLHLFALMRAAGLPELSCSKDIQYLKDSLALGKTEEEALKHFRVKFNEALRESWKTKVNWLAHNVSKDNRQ
T1 sequence (P27986 whole entry partner, canonical isoform): as the sequence (P27986 whole entry partner, species assumed, canonical isoform) above

Ki (p110 delta) | Ki p110 alpha/ Ki p110 delta (p110 alpha) | Compound
1.64 nM | 102 | CC(C)c1nc2ccccc2n1-c1nc(N2CCOCC2)c2nc(OC3CN(C4COC4)C3)n(C)c2n1 [Compound 111, 4-(2-(2-isopropyl-1H-benzo[d]imidazol-1-yl)-9-methyl-8-(1-(oxetan-3-yl)azetidin-3-yloxy)-9H-purin-6-yl)morpholine]
0.539 nM | 76 | CCc1nc2ccccc2n1-c1nc(N2CCOCC2)c2nc(OC3CN(S(=O)(=O)C4CC4)C3)n(C)c2n1 [Compound 118, 4-(8-(1-(cyclopropylsulfonyl)azetidin-3-yloxy)-2-(2-ethyl-1H-benzo[d]imidazol-1-yl)-9-methyl-9H-purin-6-yl)morpholine]
1.15 nM | 32.2 | CCc1nc2ccccc2n1-c1nc(N2CCOCC2)c2nc(OC3CCN(C4COC4)CC3)n(C)c2n1 [Compound 109, 4-(2-(2-ethyl-1H-benzo[d]imidazol-1-yl)-9-methyl-8-(1-(oxetan-3-yl)piperidin-4-yloxy)-9H-purin-6-yl)morpholine]
1.4 nM | 122 | CCc1nc2ccccc2n1-c1nc(N2CCOCC2)c2nc(OC3CCN(C(=O)C(C)(C)O)CC3)n(C)c2n1 [Compound 112, 1-(4-(2-(2-ethyl-1H-benzo[d]imidazol-1-yl)-9-methyl-6-morpholino-9H-purin-8-yloxy)piperidin-1-yl)-2-hydroxy-2-methylpropan-1-one]
0.444 nM | 277 | CCc1nc2ccccc2n1-c1nc(N2CCOCC2)c2nc(OC3CN(C(=O)C(C)C)C3C)n(C)c2n1 (stereo not shown) [Compound 149, 1-(3-(2-(2-ethyl-1H-benzo [d]imidazol-1-yl)-9-methyl-6-morpholino-9H-purin-8-yloxy)-2-methylazetidin-1-yl)-2-methylpropan-1-one]
4.94 nM | 90 | Cn1c(OC2CN(C3CCS(=O)(=O)CC3)C2)nc2c(N3CCOCC3)nc(-n3c(CCO)nc4ccccc43)nc21 [Compound 136, 2-(1-(9-methyl-6-morpholino-8-(1-(1,1-dioxo-tetrahydro-2H-thiopyran-4-yl)azetidin-3-yloxy)-9H-purin-2-yl)-1H-benzo[d]imidazol-2-yl)ethanol]
2.22 nM | 70 | CCc1nc2ccccc2n1-c1nc(N2CCOCC2)c2nc(OC3CN(C(=O)C(C)(C)O)C3)n(C)c2n1 [Compound 115, 1-(3-(2-(2-ethyl-1H-benzo[d]imidazol-1-yl)-9-methyl-6-morpholino-9H-purin-8-yloxy)azetidin-1-yl)-2-hydroxy-2-methylpropan-1-one]
0.834 nM | 54 | CO[C@@H](C)c1nc2ccccc2n1-c1nc(N2CCOCC2)c2nc(OC3CN(C(=O)C(C)C)C3)n(C)c2n1 [Compound 141, (S)-1-(3-(2-(2-(1-methoxyethyl)-1H-benzo[d]imidazol-1-yl)-9-methyl-6-morpholino-9H-purin-8-yloxy)azetidin-1-yl)-2-methylpropan-1-one]
0.651 nM | 202 | CC(C)c1nc2ccccc2n1-c1nc(N2CCOCC2)c2nc(OC3CN(C4CCOCC4)C3)n(C)c2n1 [Compound 104, 4-(2-(2-isopropyl-1H-benzo[d]imidazol-1-yl)-9-methyl-8-(1-(tetrahydro-2H-pyran-4-yl)azetidin-3-yloxy)-9H-purin-6-yl)morpholine]
1.42 nM | 87 | CCc1nc2ccccc2n1-c1nc(N2CCOCC2)c2nc(OC3CN(C(=O)[C@H](C)O)C3)n(C)c2n1 [Compound 129, (S)-1-(3-(2-(2-ethyl-1H-benzo[d]imidazol-1-yl)-9-methyl-6-morpholino-9H-purin-8-yloxy)azetidin-1-yl)-2-hydroxypropan-1-one]
0.826 nM | 100 | CCc1nc2ccccc2n1-c1nc(N2CCOCC2)c2nc(OC3CN(C(=O)C4(C)CC4)C3)n(C)c2n1 [Compound 145, (3-(2-(2-ethyl-1H-benzo [d]imidazol-1-yl)-9-methyl-6-morpholino-9H-purin-8-yloxy)azetidin-1-yl)(1-methylcyclopropyl)methanone]
0.98 nM | 485 | Cn1c(OC2CCN(C3CCOCC3)CC2)nc2c(N3CCOCC3)nc(-c3c(F)ccc4[nH]ccc34)nc21 [Compound 125, 4-(2-(5-fluoro-1H-indol-4-yl)-9-methyl-8-(1-(tetrahydro-2H-pyran-4-yl)piperidin-4-yloxy)-9H-purin-6-yl)morpholine]
1.59 nM | 50 | CO[C@@H](C)c1nc2ccccc2n1-c1nc(N2CCOCC2)c2nc(OC3CN(C4CCS(=O)(=O)CC4)C3)n(C)c2n1 [Compound 143, (S)-4-(2-(2-(1-methoxyethyl)-1H-benzo[d]imidazol-1-yl)-9-methyl-8-(1-(1,1-dioxo-tetrahydro-2H-thiopyran-4-yl)azetidin-3-yloxy)-9H-purin-6-yl)morpholine]
1.53 nM | 64 | CO[C@H](C)c1nc2ccccc2n1-c1nc(N2CCOCC2)c2nc(OC3CN(C(=O)C(C)C)C3)n(C)c2n1 [Compound 140, (R)-1-(3-(2-(2-(1-methoxyethyl)-1H-benzo[d]imidazol-1-yl)-9-methyl-6-morpholino-9H-purin-8-yloxy)azetidin-1-yl)-2-methylpropan-1-one]
1 nM | 88 | CC(C)C(=O)N1CC(Oc2nc3c(N4CCOCC4)nc(-c4c(F)ccc5[nH]ccc45)nc3n2C)C1 [Compound 126, 1-(3-(2-(5-fluoro-1H-indol-4-yl)-9-methyl-6-morpholino-9H-purin-8-yloxy)azetidin-1-yl)-2-methylpropan-1-one]
 | 126 | CCc1nc2ccccc2n1-c1nc(N2CCOCC2)c2nc(OC3CN(C(=O)C(C)(C)CO)C3)n(C)c2n1 [Compound 151, 1-(3-(2-(2-ethyl-1H-benzo [d]imidazol-1-yl)-9-methyl-6-morpholino-9H-purin-8-yloxy)azetidin-1-yl)-3-hydroxy-2,2-dimethylpropan-1-one]
1.05 nM | 98 | CCc1nc2ccccc2n1-c1nc(N2CCOCC2)c2nc(OC3CCN(C(=O)C4CC4)CC3)n(C)c2n1 [Compound 110, cyclopropyl(4-(2-(2-ethyl-1H-benzo[d]imidazol-1-yl)-9-methyl-6-morpholino-9H-purin-8-yloxy)piperidin-1-yl)methanone]
 | 115 | CCc1nc2ccccc2n1-c1nc(N2CCOCC2)c2nc(OC3CN(C(=O)C4CC4)C3)n(C)c2n1 [Compound 119, Cyclopropyl(3-(2-(2-ethyl-1H-benzo[d]imidazol-1-yl)-9-methyl-6-morpholino-9H-purin-8-yloxy)azetidin-1-yl)methanone]
